The test system of experiment [1] is T1, hASIC3 (h3) and/or hASIC1a (h1a).
T1 construct: EC50 (μM) in one experiment; HEK293
The experiment is described as follows: FlexStation/FLIPR assay, channel not marked in the cell. Type of experiment: cell-based, human. To be noted: Table H, cells without channel mark; HEK293; read-out: EC50 (μM) Flex/FLIPR. From the text: The MES-induced peak calcium response (or change in membrane potential), in the presence of test substance, is expressed relative to the MES response alone. Test substances that block the MES-induced calcium response (or change in membrane potential) are re-tested in triplicates. Confirmed hits are picked for further characterization by performing full dose-response curves to determine potency of each hit compound as represented by the IC50 values (i.e., the concentration of the test substance which inhibits 50% of the MES-induced calcium and/or membrane potentiation response; see, for example, FIG. 1).
The data shown in Table H was acquired using the FlexStation assay described in Example 1 on HEK293 cells expressing hASIC3 (h3) and/or hASIC1a (h1a).

Experiment [2] relates to formalin-induced pain. The experiment is described as follows: Formalin test, model of acute tonic pain. Type of experiment: in vivo. The following applies: rat. The protocol: Male Sprague-Dawley rats are housed together in groups of three animals under standard conditions with unrestricted access to food and water. All experiments are conducted according to the ethical guidelines for investigations of experimental pain in conscious animals (Zimmerman, 1983)
Assessment of formalin-induced flinching behavior in normal, uninjured rats (body weight 150-180 g) was made with the use of an Automated Nociception Analyser (University of California, San Diego, USA). Briefly, this involved placing a small C-shaped metal band (10 mm wide×27 mm long) on the hindpaw of the rat to be tested. The rats (four rats were included in each testing session) were then placed in a cylindrical plexiglass observation chamber (diameter 30.5 cm and height 15 cm) for 20 min for adaptation purposes prior to being administered drug or vehicle according to the experimental paradigm being followed. […] Rats were then returned to their separate observation chambers, each of which were in turn situated upon an enclosed detection device consisting of two electromagnetic coils designed to produce an electromagnetic field in which movement of the metal band could be detected. […] A sampling interval of 1 min was used and on the basis of the resulting response patterns 5 phases of nociceptive behaviour were identified and scored: first phase (P1; 0-5 min), interphase (Int; 6-15 min), second phase (P2; […]), phase 2A (P2A; 16-40 min) and phase 2B (P2B; 41-60 min).
Nociceptive behavior was also determined manually every 5 min by measuring the amount of time spent in each of four behavioral categories: 0, treatment of the injected hindpaw is indistinguishable from that of the contralateral paw; 1, the injected paw has little or no weight placed on it; 2, the injected paw is elevated and is not in contact with any surface; 3, the injected paw is licked, bitten, or shaken. A weighted nociceptive score, ranging from 0 to 3 was calculated by multiplying the time spent in each category by the category weight, summing these products, and dividing by the total time for each 5 min block of time. […]

Experiment [3] deals with T2, hASIC3 (Homo sapiens, UniProt Q9UHC3).
T2 sequence (Q9UHC3 1-531): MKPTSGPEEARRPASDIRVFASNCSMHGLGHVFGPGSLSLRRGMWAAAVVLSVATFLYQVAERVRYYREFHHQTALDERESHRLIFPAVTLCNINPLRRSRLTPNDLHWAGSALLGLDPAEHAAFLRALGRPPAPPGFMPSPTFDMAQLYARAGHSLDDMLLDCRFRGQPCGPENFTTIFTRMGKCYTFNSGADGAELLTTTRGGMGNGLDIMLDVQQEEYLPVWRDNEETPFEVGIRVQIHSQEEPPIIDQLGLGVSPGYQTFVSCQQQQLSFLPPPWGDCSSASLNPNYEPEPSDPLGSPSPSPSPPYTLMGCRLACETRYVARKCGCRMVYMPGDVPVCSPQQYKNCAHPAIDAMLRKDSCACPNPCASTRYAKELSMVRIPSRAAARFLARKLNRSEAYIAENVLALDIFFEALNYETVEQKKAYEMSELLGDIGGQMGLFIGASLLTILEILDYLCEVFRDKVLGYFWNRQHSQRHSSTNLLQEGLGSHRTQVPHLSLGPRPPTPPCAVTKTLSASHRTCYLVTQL
As to the kind of experiment: FlexStation assay on HEK293 cells expressing hASIC3. Type of experiment: cell-based. The arrangement: expressed in transfected cells; host or cells: HEK293 cells. To be noted: FlexStation (Flex), Tables A-F; read-out: Biological Data (IC50 uM) h3 (Flex).

“Also recorded” adds a separate entry of the source.

As for `Cc1cc(OC2CCN(Cc3ccccc3)CC2)c2ccccc2n1` [Compound R, 4-(1-benzyl-piperidin-4-yloxy)-2-methyl-quinoline], the EC50 in experiment [1] was > 10 µM. Further, the 50% effective dose (ED50) (commonly the dose that gives a 50% effect, or the effect in half of the subjects) in experiment [2] (licking and biting episodes in phase IIa of the formalin test (FIG. 7), read-out: ED50 (dose where the pain score is reduced by half)) is ~50 mg/kg. The “formalin-induced pain behavior (FIGS. 6A, 6B)” value in experiment [2] (manual scoring, overall pain behaviour and licking/biting, n=6) is listed as “dose-dependent effect; also recorded: dose-dependent reduction of the pain behavior”. Moreover, the IC50 (usually the point on the concentration scale where inhibition reaches its midpoint) in experiment [3] was 5 to 15 µM.

As for `COc1ccc(C(=O)CN2CCN(c3cc(C)nc4ccccc34)CC2)cc1` [Compound A, 1-(4-methoxy-phenyl)-2-[4-(2-methyl-quinolin-4-yl)-piperazin-1-yl]-ethanone], the EC50 in experiment [1] was < 10 µM. The “formalin-induced pain, flinching / total pain score (FIG. 5)” value in experiment [2] (i.p. 30 min before formalin, Automated Nociception Analyser, phase 2, n=6) was “able to reduce the total pain score behavior; also recorded: dose-dependent reduction of the pain intensity”.

These data come from patent US20070197509A1, “Compositions and methods for modulating gated ion channels” (PainCeptor Pharma Corporation, priority 2005, published 2007).
